Columns and labels:
Experiment in all cases: Test G preemergence/postemergence greenhouse plant response rating 0 to 100
sandbur = type: in vivo, Cenchrus echinatus; settings: 0 to 100 scale
In short: (§1)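 Greenhouse pots, one species each; non-phytotoxic solvent vehicle. Read-out: visual injury vs untreated, 13–21 DAT. Dash denotes no result.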

alfalfa = type: in vivo, Medicago ativa; settings: 0 to 100 scale
In short: as §1

broadleaf signalgrass = type: in vivo, Brachiaria plantaginea; settings: 0 to 100 scale
In short: as §1

purple nutsedge = type: in vivo, Cyperus rotundus; settings: Rate 125 g/ha, 0 to 100 scale
In short: as §1

smooth crabgrass = type: in vivo, Digitaria ischaemum; settings: 0 to 100 scale
In short: as §1

large crabgrass = type: in vivo, Digitaria sanguinalis; settings: 0 to 100 scale
In short: as §1

itchgrass = type: in vivo, Rottboellia exaltata; settings: 0 to 100 scale
In short: as §1

common ragweed = type: in vivo, Ambrosia elatior; settings: 0 to 100 scale
In short: as §1

guineagrass = type: in vivo, Panicum maximum; settings: 0 to 100 scale
In short: as §1

yellow nutsedge = type: in vivo, Cyperus esculentus; settings: Rate 125 g/ha, 0 to 100 scale
In short: as §1

peanut = type: in vivo, Arachis hypoagaea; settings: 0 to 100 scale
In short: as §1

common purslane = type: in vivo, Portulaca oleracea; settings: 0 to 100 scale
In short: as §1

johnsongrass = type: in vivo, Sorghum halepense; settings: 0 to 100 scale
In short: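 Scoring: visual injury at 13 to 21 days post-application, compared with untreated controls. Planting: one species per pot in greenhouse medium. Dosing: compound in non-phytotoxic solvent, within one day of sowing for preemergence or at 2–4 leaves for postemergence.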

pitted morningglory = type: in vivo, Ipomoea lacunosa; settings: 0 to 100 scale
In short: as §1

dallisgrass = type: in vivo, Paspalum dilatatum; settings: 0 to 100 scale
In short: as §1

bermudagrass = type: in vivo, Cynodon dactylon; settings: 0 to 100 scale
In short: as §1

goosegrass = type: in vivo, Eleusine indica; settings: 0 to 100 scale
In short: as §1

annual bluegrass = type: in vivo, Poa annua; settings: 0 to 100 scale
In short: as §1

C=CCN1C(=O)COc2cc(F)c(-c3nn4c(c3Cl)CCCC4)cc21 [Compound 33]
Plant response rating, S. Sandbur (sandbur; POSTEMERGENCE, Rate 125 g/ha): 0 | Plant response rating, S. Sandbur (sandbur; POSTEMERGENCE, Rate 250 g/ha): 0 | Plant response rating, S. Sandbur (sandbur; PREEMERGENCE, Rate 125 g/ha): 0 | Plant response rating, S. Sandbur (sandbur; PREEMERGENCE, Rate 250 g/ha): 0 | Plant response rating, Alfalfa Var. (alfalfa; POSTEMERGENCE, Rate 125 g/ha): 0 | Plant response rating, Alfalfa Var. (alfalfa; POSTEMERGENCE, Rate 250 g/ha): 0 | Plant response rating, Alfalfa Var. (alfalfa; PREEMERGENCE, Rate 125 g/ha): 0 | Plant response rating, Alfalfa Var. (alfalfa; PREEMERGENCE, Rate 250 g/ha): 0 | Plant response rating, Brdlf Sgnlgrass (broadleaf signalgrass; POSTEMERGENCE, Rate 125 g/ha): 0 | Plant response rating, Brdlf Sgnlgrass (broadleaf signalgrass; POSTEMERGENCE, Rate 250 g/ha): 0 | Plant response rating, Brdlf Sgnlgrass (broadleaf signalgrass; PREEMERGENCE, Rate 125 g/ha): 0 | Plant response rating, Brdlf Sgnlgrass (broadleaf signalgrass; PREEMERGENCE, Rate 250 g/ha): 0 | Plant response rating, Purple Nutsedge (purple nutsedge; POSTEMERGENCE): 10 | Plant response rating, Purple Nutsedge (purple nutsedge; PREEMERGENCE): 0 | Plant response rating, Smooth Crabgras (smooth crabgrass; POSTEMERGENCE, Rate 125 g/ha): 0 | Plant response rating, Smooth Crabgras (smooth crabgrass; POSTEMERGENCE, Rate 250 g/ha): 0 | Plant response rating, Smooth Crabgras (smooth crabgrass; PREEMERGENCE, Rate 125 g/ha): 0 | Plant response rating, Smooth Crabgras (smooth crabgrass; PREEMERGENCE, Rate 250 g/ha): 0 | Plant response rating, Large Crabgrass (large crabgrass; POSTEMERGENCE, Rate 125 g/ha): 0 | Plant response rating, Large Crabgrass (large crabgrass; POSTEMERGENCE, Rate 250 g/ha): 0 | Plant response rating, Large Crabgrass (large crabgrass; PREEMERGENCE, Rate 125 g/ha): 0 | Plant response rating, Large Crabgrass (large crabgrass; PREEMERGENCE, Rate 250 g/ha): 0 | Plant response rating, Itchgrass (itchgrass; POSTEMERGENCE, Rate 125 g/ha): 0 | Plant response rating, Itchgrass (itchgrass; POSTEMERGENCE, Rate 250 g/ha): 0 | Plant response rating, Itchgrass (itchgrass; PREEMERGENCE, Rate 125 g/ha): 0 | Plant response rating, Itchgrass (itchgrass; PREEMERGENCE, Rate 250 g/ha): 0 | Plant response rating, Cmn Ragweed (common ragweed; POSTEMERGENCE, Rate 125 g/ha): 80 | Plant response rating, Cmn Ragweed (common ragweed; POSTEMERGENCE, Rate 250 g/ha): 50 | Plant response rating, Cmn Ragweed (common ragweed; PREEMERGENCE, Rate 125 g/ha): 0 | Plant response rating, Cmn Ragweed (common ragweed; PREEMERGENCE, Rate 250 g/ha): 0 | Plant response rating, Guineagrass (guineagrass; POSTEMERGENCE, Rate 125 g/ha): 0 | Plant response rating, Guineagrass (guineagrass; POSTEMERGENCE, Rate 250 g/ha): 0 | Plant response rating, Guineagrass (guineagrass; PREEMERGENCE, Rate 125 g/ha): 0 | Plant response rating, Guineagrass (guineagrass; PREEMERGENCE, Rate 250 g/ha): 0 | Plant response rating, Yellow Nutsedge (yellow nutsedge; POSTEMERGENCE): 0 | Plant response rating, Yellow Nutsedge (yellow nutsedge; PREEMERGENCE): 0 | Plant response rating, Peanuts (peanut; POSTEMERGENCE, Rate 125 g/ha): 0 | Plant response rating, Peanuts (peanut; POSTEMERGENCE, Rate 250 g/ha): 0 | Plant response rating, Peanuts (peanut; PREEMERGENCE, Rate 125 g/ha): 0 | Plant response rating, Peanuts (peanut; PREEMERGENCE, Rate 250 g/ha): 0 | Plant response rating, Cmn Purslane (common purslane; POSTEMERGENCE, Rate 125 g/ha): 100 | Plant response rating, Cmn Purslane (common purslane; POSTEMERGENCE, Rate 250 g/ha): 80 | Plant response rating, Cmn Purslane (common purslane; PREEMERGENCE, Rate 125 g/ha): 0 | Plant response rating, Cmn Purslane (common purslane; PREEMERGENCE, Rate 250 g/ha): 40 | Plant response rating, Johnsongrass (johnsongrass; POSTEMERGENCE, Rate 125 g/ha): 0 | Plant response rating, Johnsongrass (johnsongrass; POSTEMERGENCE, Rate 250 g/ha): 0 | Plant response rating, Johnsongrass (johnsongrass; PREEMERGENCE, Rate 125 g/ha): 0 | Plant response rating, Johnsongrass (johnsongrass; PREEMERGENCE, Rate 250 g/ha): 0 | Plant response rating, Pit Morninglory (pitted morningglory; POSTEMERGENCE, Rate 125 g/ha): 30 | Plant response rating, Pit Morninglory (pitted morningglory; POSTEMERGENCE, Rate 250 g/ha): 100 | Plant response rating, Pit Morninglory (pitted morningglory; PREEMERGENCE, Rate 125 g/ha): 0 | Plant response rating, Pit Morninglory (pitted morningglory; PREEMERGENCE, Rate 250 g/ha): 0 | Plant response rating, Dallisgrass (dallisgrass; POSTEMERGENCE, Rate 125 g/ha): 0 | Plant response rating, Dallisgrass (dallisgrass; POSTEMERGENCE, Rate 250 g/ha): 0 | Plant response rating, Dallisgrass (dallisgrass; PREEMERGENCE, Rate 125 g/ha): 0 | Plant response rating, Dallisgrass (dallisgrass; PREEMERGENCE, Rate 250 g/ha): 0 | Plant response rating, Bermudagrass (bermudagrass; POSTEMERGENCE, Rate 125 g/ha): 0 | Plant response rating, Bermudagrass (bermudagrass; POSTEMERGENCE, Rate 250 g/ha): 0 | Plant response rating, Bermudagrass (bermudagrass; PREEMERGENCE, Rate 125 g/ha): 0 | Plant response rating, Bermudagrass (bermudagrass; PREEMERGENCE, Rate 250 g/ha): 0 | Plant response rating, Goosegrass (goosegrass; POSTEMERGENCE, Rate 125 g/ha): 0 | Plant response rating, Goosegrass (goosegrass; POSTEMERGENCE, Rate 250 g/ha): 0 | Plant response rating, Goosegrass (goosegrass; PREEMERGENCE, Rate 125 g/ha): 0 | Plant response rating, Goosegrass (goosegrass; PREEMERGENCE, Rate 250 g/ha): 0 | Plant response rating, Ann Bluegrass (annual bluegrass; POSTEMERGENCE, Rate 125 g/ha): 0 | Plant response rating, Ann Bluegrass (annual bluegrass; POSTEMERGENCE, Rate 250 g/ha): 0 | Plant response rating, Ann Bluegrass (annual bluegrass; PREEMERGENCE, Rate 125 g/ha): 0 | Plant response rating, Ann Bluegrass (annual bluegrass; PREEMERGENCE, Rate 250 g/ha): 0

— US6358885B1, “Substituted phenylheterocyclic herbicides” (Mississippi State University, priority 1992, dated 2002)
